Experimental data reported in PubChem BioAssay AID330 (DTP/NCI, 2004).
Toxic doses and inconclusive results are not listed. The calls were made as follows: active = survival T/C of 150% or more; inactive = T/C below 125% in these data.

Tested on: P388 leukemia ip, CD2F1 mice, survival T/C
Experiment: NCI In Vivo Anticancer Drug Screen. Data for tumor model P388 Leukemia (intraperitoneal) in CD2F1 (CDF1) mice
Conditions: endpoint: median survival time, higher = longer survival
Outline: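 Mice carrying the transplanted tumor received test compound or vehicle. Survival was recorded in each group, and the value is the treated-group measurement divided by that of the vehicle-treated control group.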

[1] = dose: 120.0 mg/kg/injection, schedule: Q01DX005 (ip), vehicle: saline
[2] = dose: 50.0 mg/kg/injection, schedule: Q01DX009 (ip), vehicle: saline
[3] = dose: 100.0 mg/kg/injection, schedule: Q01DX009 (ip), vehicle: saline
[4] = dose: 200.0 mg/kg/injection, schedule: Q01DX009 (ip), vehicle: saline
[5] = dose: 50.0 mg/kg/injection, schedule: Q01DX009 (ip), vehicle: saline with Tween-80
[6] = dose: 100.0 mg/kg/injection, schedule: Q01DX009 (ip), vehicle: saline with Tween-80
[7] = dose: 50.0 mg/kg/injection, schedule: Q01DX009 (ip), vehicle: Klucel (hydroxypropylcellulose) (HPC)
[8] = dose: 100.0 mg/kg/injection, schedule: Q01DX009 (ip), vehicle: Klucel (hydroxypropylcellulose) (HPC)
[9] = dose: 200.0 mg/kg/injection, schedule: Q01DX009 (ip), vehicle: Klucel (hydroxypropylcellulose) (HPC)

Measured: T/C

COc1cc2c(cc1C1CCCCCc3c1[nH]c1ccccc31)C1CCCCC1N2C (stereo unspecified)
inactive: dose: 12.5 mg/kg/injection, schedule: Q01DX001 (ip), vehicle: distilled water + Tween-80 100 % of control | dose: 25.0 mg/kg/injection, schedule: Q01DX001 (ip), vehicle: distilled water + Tween-80 100 % of control | dose: 50.0 mg/kg/injection, schedule: Q01DX001 (ip), vehicle: distilled water + Tween-80 100 % of control | dose: 100.0 mg/kg/injection, schedule: Q01DX001 (ip), vehicle: distilled water + Tween-80 95 % of control | dose: 200.0 mg/kg/injection, schedule: Q01DX001 (ip), vehicle: distilled water + Tween-80 91 % of control

O=C1NC2(CCCCC2)C(=O)N1CCl
inactive: dose: 6.25 mg/kg/injection, schedule: Q01DX005 (ip), vehicle: saline 100 % of control | dose: 12.5 mg/kg/injection, schedule: Q01DX005 (ip), vehicle: saline 101 % of control | dose: 25.0 mg/kg/injection, schedule: Q01DX005 (ip), vehicle: saline 108 % of control | dose: 30.0 mg/kg/injection, schedule: Q01DX005 (ip), vehicle: saline 104 % of control | dose: 50.0 mg/kg/injection, schedule: Q01DX005 (ip), vehicle: saline 103 % of control | dose: 60.0 mg/kg/injection, schedule: Q01DX005 (ip), vehicle: saline 122 % of control | dose: 100.0 mg/kg/injection, schedule: Q01DX005 (ip), vehicle: saline 112 % of control | [1] 118 % of control | dose: 240.0 mg/kg/injection, schedule: Q01DX005 (ip), vehicle: saline 114 % of control

CC(=O)C(C(C)=O)C(C(C)=O)C(C)=O.[Cu]
inactive: dose: 1.5 mg/kg/injection, schedule: Q01DX005 (ip), vehicle: saline with Tween-80 110 % of control | dose: 3.0 mg/kg/injection, schedule: Q01DX005 (ip), vehicle: saline with Tween-80 107 % of control | dose: 6.0 mg/kg/injection, schedule: Q01DX005 (ip), vehicle: saline with Tween-80 99 % of control | dose: 6.25 mg/kg/injection, schedule: Q01DX005 (ip), vehicle: saline with Tween-80 104 % of control

CCC1(O)CC(OC2CC(N(C)C)C(OC3CC(O)C(O)C(C)O3)C(C)O2)c2c(cc3c(c2O)C(=O)c2c(O)ccc(O)c2C3=O)C1C(=O)OC (stereo unspecified)
inactive: dose: 3.13 mg/kg/injection, schedule: Q04DX003 (ip), vehicle: Klucel (hydroxypropylcellulose) (HPC) 100 % of control | dose: 6.25 mg/kg/injection, schedule: Q04DX003 (ip), vehicle: Klucel (hydroxypropylcellulose) (HPC) 110 % of control | dose: 50.0 mg/kg/injection, schedule: Q04DX003 (ip), vehicle: Klucel (hydroxypropylcellulose) (HPC) 120 % of control

O=c1[nH]c(=S)cnn1C1OC(CO)C(O)C1O (stereo unspecified)
inactive: [2] 106 % of control | [3] 94 % of control | [4] 101 % of control

COC(=O)c1ccc(N=NN(C)CO)cc1
inactive: dose: 60.0 mg/kg/injection, schedule: Q01DX005 (ip), vehicle: saline with Tween-80 97 % of control | dose: 120.0 mg/kg/injection, schedule: Q01DX005 (ip), vehicle: saline with Tween-80 108 % of control | dose: 240.0 mg/kg/injection, schedule: Q01DX005 (ip), vehicle: saline with Tween-80 115 % of control

COc1cc(OC)c(C(=O)C(CN(C)C)CN(C)C)cc1OC
inactive: dose: 1.87 mg/kg/injection, schedule: Q01DX005 (ip), vehicle: saline 113 % of control | dose: 3.75 mg/kg/injection, schedule: Q01DX005 (ip), vehicle: other 113 % of control | dose: 3.75 mg/kg/injection, schedule: Q01DX005 (ip), vehicle: saline 107 % of control | dose: 7.5 mg/kg/injection, schedule: Q01DX005 (ip), vehicle: other 108 % of control | dose: 7.5 mg/kg/injection, schedule: Q01DX005 (ip), vehicle: saline 106 % of control | dose: 15.0 mg/kg/injection, schedule: Q01DX005 (ip), vehicle: saline 107 % of control | [1] 124 % of control

COc1ccc(S(=O)(=O)c2cnc(N)nc2N)cc1
inactive: dose: 100.0 mg/kg/injection, schedule: Q01DX001 (ip), vehicle: saline 97 % of control | dose: 200.0 mg/kg/injection, schedule: Q01DX001 (ip), vehicle: saline 93 % of control | dose: 400.0 mg/kg/injection, schedule: Q01DX001 (ip), vehicle: saline 90 % of control

C=COC(=O)C(Cc1ccc(Cl)cc1)NC(=O)OCc1ccccc1 (stereo unspecified)
inactive: dose: 100.0 mg/kg/injection, schedule: Q04DX002 (ip), vehicle: Klucel (hydroxypropylcellulose) (HPC) 97 % of control | dose: 200.0 mg/kg/injection, schedule: Q04DX002 (ip), vehicle: Klucel (hydroxypropylcellulose) (HPC) 91 % of control | dose: 400.0 mg/kg/injection, schedule: Q04DX002 (ip), vehicle: Klucel (hydroxypropylcellulose) (HPC) 95 % of control

CSC(=S)n1nc(-c2ccccc2)c(N=Nc2ccc(C)cc2)c1-c1ccccc1
inactive: dose: 50.0 mg/kg/injection, schedule: Q01DX005 (ip), vehicle: saline with Tween-80 98 % of control | dose: 100.0 mg/kg/injection, schedule: Q01DX005 (ip), vehicle: saline with Tween-80 91 % of control | dose: 200.0 mg/kg/injection, schedule: Q01DX005 (ip), vehicle: saline with Tween-80 93 % of control

Cc1ccn2c([N+](=O)[O-])cnc2c1
inactive: [5] 107 % of control | [6] 104 % of control | dose: 200.0 mg/kg/injection, schedule: Q01DX009 (ip), vehicle: saline with Tween-80 102 % of control

N#CCCSc1nnc(SCCC#N)s1
inactive: [7] 92 % of control | [8] 101 % of control | [9] 94 % of control | dose: 400.0 mg/kg/injection, schedule: Q01DX009 (ip), vehicle: Klucel (hydroxypropylcellulose) (HPC) 90 % of control

Cc1cc(C)n(-c2ccc(Cl)nn2)n1
inactive: [2] 99 % of control | [3] 95 % of control | [4] 100 % of control

N#CC(CC[N+](=O)[O-])(c1ccccc1)C(c1ccccc1)[N+](=O)[O-] (stereo unspecified)
inactive: dose: 12.5 mg/kg/injection, schedule: Q01DX001 (ip), vehicle: saline with Tween-80 87 % of control | dose: 25.0 mg/kg/injection, schedule: Q01DX001 (ip), vehicle: saline with Tween-80 96 % of control

COc1ccc2cc1Oc1ccc(cc1)C[C@H]1c3cc(c(OC)cc3CCN1C)Oc1c(O)c(OC)cc3c1[C@H](C2)N(C)CC3
inactive: dose: 25.0 mg/kg/injection, schedule: Q01DX009 (ip), vehicle: saline 106 % of control | [2] 100 % of control | dose: 50.0 mg/kg/injection, schedule: Q01DX009 (ip), vehicle: suspension in saline 103 % of control | [3] 103 % of control | dose: 100.0 mg/kg/injection, schedule: Q01DX009 (ip), vehicle: suspension in saline 102 % of control

CC(C)CC1N=C(NN=C(CCl)CCl)SP1(=O)NCCCCCCNP1(=O)SC(NN=C(CCl)CCl)=NC1CC(C)C (stereo unspecified)
inactive: dose: 60.0 mg/kg/injection, schedule: Q01DX005 (ip), vehicle: Klucel (hydroxypropylcellulose) (HPC) 100 % of control | dose: 120.0 mg/kg/injection, schedule: Q01DX005 (ip), vehicle: Klucel (hydroxypropylcellulose) (HPC) 103 % of control | dose: 240.0 mg/kg/injection, schedule: Q01DX005 (ip), vehicle: Klucel (hydroxypropylcellulose) (HPC) 102 % of control

O=S(=O)(O)c1ccc2c(N=Nc3ccccc3[As](=O)(O)O)c(O)c(S(=O)(=O)O)cc2c1
inactive: [5] 104 % of control | [6] 113 % of control

CC(=O)OCCS(CCOC(C)=O)=NS(=O)(=O)c1ccc(C)cc1
inactive: [2] 108 % of control | [3] 108 % of control | [4] 106 % of control

COC(=O)C1CC(c2ccccc2)N(c2ccccc2)O1 (stereo unspecified)
inactive: [7] 100 % of control | [8] 103 % of control | [9] 100 % of control
